The source of these data is patent US20080114079A1, “TRPM2-specfic inhibitors” (priority 2006, published 2008).

The target of one data set is T1, TRPM2 channels (Homo sapiens, UniProt O94759).
T1 construct: All experiments were performed at room temperature with Jurkat T lymphocytes attached to high molecular weight poly-L-lysin; endogenous in cells; host or cells: Jurkat T lymphocytes
As to the kind of experiment: Whole-cell patch-clamp of ADPR-gated cation entry in TRPM2-expressing Jurkat T cells. In kind it is cell-based. Conditions: 300 μM ADPR in the pipette, -60 mV. (In general: Patch clamp records ionic current or voltage across a cell membrane.)

Data set [1] deals with mouse bone marrow neutrophils. The experiment in a line: Ca2+ mobilization assay in chemoattractant-stimulated bone marrow neutrophils (flow cytometry, Fluo-3/Fura-red). In kind it is cell-based. Conditions: 100 μM, 15 min. The protocol: (§1) Ca^2+ mobilization assays. Bone marrow neutrophils (1×10^7/ml) and DCs (1×10^6/ml) were loaded with a mixture of Fluo-3 AM and Fura-Red AM as previously described (Partida-Sanchez, S. et al., 2001 Nature Medicine 7:1209-1216; Partida-Sanchez S. et al., 2004 Immunity 20:279-291). […] The accumulation of intracellular free Ca^2+ was assessed by flow cytometry by measuring the fluorescence emission of Fluo-3 in the FL-1 channel and Fura-Red in the FL-3 channel over time. Data were analyzed using FlowJo 4.0 software (Tree Star). Relative intracellular free Ca^2+ levels are expressed as the ratio between Fluo-3 and Fura-Red mean fluorescence intensity.
For orientation: A change in cytosolic calcium serves as a functional read-out for many receptors and channels.

For data set [2], the system named is mouse bone marrow neutrophils. The experiment in a line: Transwell chemotaxis assay, mouse bone marrow neutrophils. In kind it is cell-based. The method, then:
(§2) Chemotaxis assays. Chemotaxis assays were performed as previously described (Partida-Sanchez, S. et al., 2001 Nature Medicine 7:1209-1216; Partida-Sanchez S. et al., 2004 Immunity 20:279-291). […] Treated cells (1×10^6 neutrophils or 1×10^5 DCs) were added to the upper chamber of the transwell (3-μm for neutrophils or 5-μm for DCs) (Costar). After incubating the chambers for 45 min (neutrophils) or 90 min (DCs) at 37° C., the transmigrated cells were collected from the lower chamber, fixed, and counted on a flow cytometer. The results are expressed as the mean ±SD of the chemotaxis index (CI) for triplicate wells. The CI represents the fold-change in the number of untreated or inhibitor-pretreated cells that migrated in response to the chemoattractant divided by the basal migration of untreated or antagonist pretreated cells migrating in response to control medium.

The subject of data set [3] is mouse bone marrow neutrophils. The experiment in a line: Oxidant (H2O2)-induced Ca2+ influx in bone marrow neutrophils. In kind it is cell-based. Conditions: 100 μM, 15 min, H2O2 100 μM. The method, then: as §1
Data set [4] in a line: HPLC analysis of catabolites after incubation with bone marrow neutrophils. In kind it is in vitro ADME, mouse. The method, then: HPLC analysis of catabolites produced by CD38-expressing cells. […] The supernatants were collected after centrifugation, concentrated and flash frozen. Aliquots were analyzed by reversed-phase HPLC (Kontron Instruments) using a Multohyp BDS C18 column (250 mm×4.6 mm, particle size 5 μm, Chromatographie Service). Absorbance was measured at 270 nm using a UV detector (Kontron 432) and data were processed by the MT2 data acquisition system from Kontron Instruments. Peaks were identified by comparison to known standards and the area under each curve was quantified to determine relative amounts of each metabolite.

Data set [5] has as its system bone marrow-derived immature or TNFα-matured DCs. The experiment in a line: Transwell chemotaxis assay, bone marrow-derived DCs. In kind it is cell-based, mouse. Conditions: 100 μM, 15 min pretreatment. The protocol:
as §2

The subject of another data set is mouse DCs. The experiment in a line: Ca2+ mobilization assay in chemokine-stimulated DCs. The conditions noted are these: 100 μM, 15 min, CXCL12 50 ng/ml. In kind it is cell-based. The protocol:
as §1

A further data set deals with human neutrophils. The experiment in a line: Transwell chemotaxis assay, human peripheral blood neutrophils. In kind it is cell-based. Conditions: 100 μM, 15 min, A5 peptide 1 μM. The method, then: as §2
Where [6] appears, read: fMLP 1 μM, Ca2+-containing media.
The mark [7] stands for this setting: 100 μM, 15 min, fMLP 1 μM, 45 min.

Usually IC50 stands for the midpoint of a concentration-inhibition curve.

Entries after “also recorded” stand apart in the source; their conditions may differ.

T1 sequence (O94759 whole entry): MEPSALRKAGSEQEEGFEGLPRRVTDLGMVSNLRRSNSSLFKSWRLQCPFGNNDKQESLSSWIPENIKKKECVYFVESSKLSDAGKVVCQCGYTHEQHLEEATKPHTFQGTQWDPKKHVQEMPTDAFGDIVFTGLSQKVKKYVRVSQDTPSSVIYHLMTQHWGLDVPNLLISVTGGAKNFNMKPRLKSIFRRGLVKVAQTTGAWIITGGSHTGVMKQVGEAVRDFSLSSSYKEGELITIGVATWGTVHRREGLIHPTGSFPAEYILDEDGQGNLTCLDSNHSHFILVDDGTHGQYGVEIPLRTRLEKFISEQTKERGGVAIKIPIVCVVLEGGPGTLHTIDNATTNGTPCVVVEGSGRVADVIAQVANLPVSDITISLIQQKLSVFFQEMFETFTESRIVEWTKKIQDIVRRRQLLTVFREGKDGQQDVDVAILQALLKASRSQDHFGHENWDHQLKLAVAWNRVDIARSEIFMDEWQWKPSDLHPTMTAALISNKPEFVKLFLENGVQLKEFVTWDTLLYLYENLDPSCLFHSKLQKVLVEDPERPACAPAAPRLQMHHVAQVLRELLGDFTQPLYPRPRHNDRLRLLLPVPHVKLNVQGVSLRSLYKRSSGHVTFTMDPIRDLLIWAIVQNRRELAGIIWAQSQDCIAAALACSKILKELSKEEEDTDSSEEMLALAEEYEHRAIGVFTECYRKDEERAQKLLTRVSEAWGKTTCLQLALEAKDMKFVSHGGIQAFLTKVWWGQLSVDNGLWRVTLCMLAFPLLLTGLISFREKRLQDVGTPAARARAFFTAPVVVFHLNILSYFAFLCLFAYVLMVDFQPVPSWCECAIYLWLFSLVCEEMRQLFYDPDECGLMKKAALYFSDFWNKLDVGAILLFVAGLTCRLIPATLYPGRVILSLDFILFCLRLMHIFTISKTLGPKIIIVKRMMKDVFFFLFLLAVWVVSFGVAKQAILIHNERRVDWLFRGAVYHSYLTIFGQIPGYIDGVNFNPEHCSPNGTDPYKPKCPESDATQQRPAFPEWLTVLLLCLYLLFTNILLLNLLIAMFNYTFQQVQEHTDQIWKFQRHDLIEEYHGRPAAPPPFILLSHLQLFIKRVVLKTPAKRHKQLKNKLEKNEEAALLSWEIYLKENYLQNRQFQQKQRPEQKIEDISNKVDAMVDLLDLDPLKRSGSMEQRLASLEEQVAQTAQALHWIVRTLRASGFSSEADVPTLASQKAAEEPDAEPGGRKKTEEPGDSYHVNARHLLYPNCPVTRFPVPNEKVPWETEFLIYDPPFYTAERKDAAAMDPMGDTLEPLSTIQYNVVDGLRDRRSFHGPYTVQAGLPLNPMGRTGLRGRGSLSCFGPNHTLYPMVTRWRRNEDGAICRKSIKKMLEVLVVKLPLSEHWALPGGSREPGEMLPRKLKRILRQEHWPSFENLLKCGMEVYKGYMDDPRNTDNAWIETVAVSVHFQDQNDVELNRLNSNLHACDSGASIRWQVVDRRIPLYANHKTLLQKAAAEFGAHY
Protocol for TRPM2 channels: Electrophysiology. […] An EPC9 patch-clamp amplifier was used in conjunction with the PULSE stimulation and data acquisition software (HEKA Elektronik). The patch electrodes were made from 1.5 mm diameter borosilicate glass capillaries and filled with intracellular solution. Data were low-pass filtered at 1 kHz and compensated for both fast and slow capacity transients. Series resistance was compensated by 50-90%. All experiments were performed at room temperature with Jurkat T lymphocytes attached to high molecular weight poly-L-lysin. The pipette solution contained 145 mM K-glutamate, 8 mM NaCl, 1 mM MgCl2 and 10 mM EGTA, adjusted to pH 7.2 with KOH and to a free Ca^2+ concentration of 100 nM with CaCl2. […] The external solution contained 145 mM NaCl, 2 mM MgCl2, 1 mM CaCl2, 2.8 mM KCl, 10 mM HEPES and 10 mM glucose, adjusted to pH 7.2 with NaOH. The cells were held at −60 mV and I-V relations were obtained every 20 sec using 250 ms voltage ramps from −100 to +100 mV.

For the molecule adenosine diphosphate ribose [ADPR], on TRPM2 channels, the “membrane current on infusion into Jurkat cells” value was “caused a slowly developing inward current”.

For `NC(=O)c1ccc[n+]([C@@H]2O[C@H](COP(=O)([O-])OP(=O)(O)OC[C@H]3O[C@@H](n4c(Br)nc5c(N)ncnc54)[C@H](O)[C@@H]3O)[C@@H](O)[C@H]2O)c1` [8Br-NAD^+], the “effect on extracellular Ca2+ influx in fMLP-stimulated WT neutrophils” value (from here on “effect on extracellular Ca2+ influx”) in data set [1] (setting [6]) was “significantly reduced”. The “effect on Ca2+ influx in fMLP-stimulated Parp1-/- neutrophils” value in data set [1] (fMLP 1 μM, Parp1-/-) is listed as “significantly reduced”. The “effect on chemotactic response of WT neutrophils to fMLP” value in data set [2] (setting [7]) is recorded as “significantly inhibited”. Further, the “effect on chemotactic response of Parp1-/- neutrophils to fMLP” value in data set [2] (100 μM, 15 min, fMLP 1 μM, Parp1-/-) was “inhibited”. For the same molecule, in data set [2] (15 min, fMLP 1 μM), the “effect on chemotactic response of CD38KO (Cd38-/-) neutrophils to fMLP” value is given as “no further inhibition”. In addition, in data set [3], the “effect on H2O2-induced Ca2+ influx in WT neutrophils” value is “had no effect”. Besides, the “stability in the absence of any cells” value in data set [4] is given as “remained intact”.

For 8Br-cADPR, in data set [1] (IL-8 100 nM, Ca2+ free buffer (EGTA 2 mM)), the “effect on intracellular Ca2+ release after IL-8” value is on record as “had no effect”. In addition, the “effect on IL-8 induced Ca2+ response” value in data set [1] (IL-8 100 nM, Ca2+-containing media) is given as “neither compound had any effect”. The “decrease of intracellular Ca2+ release in fMLP-stimulated neutrophils” value in data set [1] (fMLP 1 μM, Ca2+ free buffer (EGTA 2 mM)) is recorded as “approximately 25%”. In addition, in data set [1] (setting [6]), the “effect on extracellular Ca2+ influx” value is listed as “significantly decreased”. Further, in data set [5], the “chemotactic response of TNFα-matured DCs to CCL21” value is on record as “neither the immature nor mature DCs migrated efficiently” and the “chemotactic response of immature DCs to CXCL12” value is “neither the immature nor mature DCs migrated efficiently”. Besides, the IC50 in data set [2] (0-100 μM, 15 min, fMLP 1 μM, read-out: IC50 on chemotaxis of fMLP-stimulated mouse neutrophils) lay in the range of 1 to 5 µM. Further, in data set [2] (setting [7]), the “effect on chemotactic response of WT neutrophils to fMLP” value is reported as “effectively blocked chemotaxis; also recorded: significantly inhibited”. Moreover, the “effect on chemotactic response of neutrophils to IL-8” value in data set [2] (100 μM, IL-8 100 nM, 45 min) is “neither 8Br-ADPR nor 8Br-cADPR blocked”. The “effect on chemotactic response of CD38KO (Cd38-/-) neutrophils to fMLP” value in data set [2] (15 min, fMLP 1 μM) was “no further inhibition”. In addition, in the data set with mouse DCs, the “effect on Ca2+ response of CXCL12-stimulated immature DCs” value is given as “blocked”. Further, in data set [4], the “catabolism on incubation with CD38KO (Cd38-/-) neutrophils” value is reported as “remained largely unchanged” and the “stability in the absence of any cells” value is reported as “remained intact”. In addition, the “effect on migration of human neutrophils to FPRL1 ligand A5 peptide” value in the data set with human neutrophils is on record as “effectively inhibited”.

On to `Nc1ncnc2c1nc(Br)n2[C@@H]1O[C@H](COP(=O)(O)O)[C@@H](O)[C@H]1O` [8Br-AMP], for which the “effect on extracellular Ca2+ influx” value in data set [1] (setting [6]) is “had absolutely no effect; also recorded: does not block”.
